Values joined by “and” are separate entries in the source; they are usually repeats but may differ in a detail not shown here. Equal values may be shown once. Toxic doses and inconclusive results are not listed. Rule as the data show it: active = T/C of 150% or more; inactive = T/C below 125%.
Test system: L1210 leukemia ip in BDF1 mice, survival T/C
Assay: NCI In Vivo Anticancer Drug Screen. Data for tumor model L1210 Leukemia (intraperitoneal) in B6D2F1 (BDF1) mice
Details: endpoint: mean survival time, higher = longer survival
Summary of the method: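 Tumor cells were implanted, animals were treated, and survival was followed. The result divides the treated measurement by the vehicle-control measurement.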

[1] = dose: 100.0 mg/kg/injection, schedule: Q01DX009 (ip), vehicle: Klucel (hydroxypropylcellulose) (HPC)
[2] = dose: 200.0 mg/kg/injection, schedule: Q01DX009 (ip), vehicle: Klucel (hydroxypropylcellulose) (HPC)
[3] = dose: 400.0 mg/kg/injection, schedule: Q01DX009 (ip), vehicle: Klucel (hydroxypropylcellulose) (HPC)
[4] = dose: 100.0 mg/kg/injection, schedule: Q04DX003 (ip), vehicle: saline with Tween-80
[5] = dose: 200.0 mg/kg/injection, schedule: Q04DX003 (ip), vehicle: saline with Tween-80
[6] = dose: 100.0 mg/kg/injection, schedule: Q01DX001 (ip), vehicle: saline
[7] = dose: 200.0 mg/kg/injection, schedule: Q01DX001 (ip), vehicle: saline
[8] = dose: 400.0 mg/kg/injection, schedule: Q01DX001 (ip), vehicle: saline

Measured: T/C

COc1ccc(NC(Nc2ccc(OC)cc2)C(Cl)(Cl)Cl)cc1
inactive: dose: 100.0 mg/kg/injection, schedule: Q01DX009 (ip), vehicle: other 90 % of control | dose: 100.0 mg/kg/injection, schedule: Q04DX003 (ip), vehicle: other 87 % of control | dose: 200.0 mg/kg/injection, schedule: Q01DX009 (ip), vehicle: other 93 % of control | dose: 200.0 mg/kg/injection, schedule: Q04DX003 (ip), vehicle: other 97 % of control | dose: 400.0 mg/kg/injection, schedule: Q01DX009 (ip), vehicle: other 123 % of control | dose: 400.0 mg/kg/injection, schedule: Q04DX003 (ip), vehicle: other 114 % of control

Nc1ccc(O)c2c1C(=O)c1ccccc1C2=O
inactive: [1] 103 % of control | dose: 100.0 mg/kg/injection, schedule: Q04DX002 (ip), vehicle: Klucel (hydroxypropylcellulose) (HPC) 104 % of control | [2] 92 % of control | dose: 200.0 mg/kg/injection, schedule: Q04DX002 (ip), vehicle: Klucel (hydroxypropylcellulose) (HPC) 115 % of control | [3] 96 % of control | dose: 400.0 mg/kg/injection, schedule: Q04DX002 (ip), vehicle: Klucel (hydroxypropylcellulose) (HPC) 100 % of control

O=C(CCC(C(=O)Nc1ccccc1)C(O)(c1ccccc1)c1ccccc1)Nc1ccccc1 (stereo not drawn)
inactive: dose: 100.0 mg/kg/injection, schedule: Q01DX001 (ip), vehicle: other 91 % of control | dose: 200.0 mg/kg/injection, schedule: Q01DX001 (ip), vehicle: other 91 % of control | dose: 400.0 mg/kg/injection, schedule: Q01DX001 (ip), vehicle: other 89 % of control

CCOCc1cc([N+](=O)[O-])cc([N+](=O)[O-])c1O
inactive: dose: 5.56 mg/kg/injection, schedule: Q01DX009 (ip), vehicle: saline with Tween-80 90 % of control | dose: 8.33 mg/kg/injection, schedule: Q01DX009 (ip), vehicle: saline with Tween-80 108 % of control | dose: 12.5 mg/kg/injection, schedule: Q01DX009 (ip), vehicle: saline with Tween-80 95 % of control | dose: 18.7 mg/kg/injection, schedule: Q01DX009 (ip), vehicle: saline with Tween-80 104 % of control | dose: 25.0 mg/kg/injection, schedule: Q01DX009 (ip), vehicle: saline with Tween-80 103 % of control | dose: 50.0 mg/kg/injection, schedule: Q01DX009 (ip), vehicle: saline with Tween-80 93 % of control

COC1(OC)C2C=CC1C1C2C2C1C1C=CC2C1(OC)OC (stereo not drawn)
inactive: dose: 100.0 mg/kg/injection, schedule: Q01DX009 (ip), vehicle: saline with Tween-80 103 % of control | [4] 94 % of control | dose: 200.0 mg/kg/injection, schedule: Q01DX009 (ip), vehicle: saline with Tween-80 95 % of control | [5] 92 % of control | dose: 400.0 mg/kg/injection, schedule: Q01DX009 (ip), vehicle: saline with Tween-80 100 % of control | dose: 400.0 mg/kg/injection, schedule: Q04DX003 (ip), vehicle: saline with Tween-80 89 % of control

C[CH2][Pb]([CH2]C)([CH2]C)[O]S(=O)(=O)c1ccc(C)cc1
inactive: dose: 1.56 mg/kg/injection, schedule: Q01DX009 (ip), vehicle: saline with Tween-80 95 % of control | dose: 3.13 mg/kg/injection, schedule: Q01DX009 (ip), vehicle: saline with Tween-80 96 % of control

CCCN(CCC)C(=S)CC
inactive: dose: 100.0 mg/kg/injection, schedule: Q04DX002 (ip), vehicle: saline with Tween-80 94 % of control | dose: 200.0 mg/kg/injection, schedule: Q04DX002 (ip), vehicle: saline with Tween-80 98 % of control

O=C(CCl)c1ccc[nH]1
inactive: dose: 50.0 mg/kg/injection, schedule: Q01DX015 (ip), vehicle: carboxymethylcellulose (CMC) 93 % of control | dose: 75.0 mg/kg/injection, schedule: Q01DX001 (ip), vehicle: carboxymethylcellulose (CMC) 93 % of control | dose: 100.0 mg/kg/injection, schedule: Q01DX015 (ip), vehicle: carboxymethylcellulose (CMC) 93 % of control

NCCCCC(=O)NC(CCCCNC(=O)OCc1ccccc1)C(=O)O (stereo not drawn)
inactive: [6] 102 % of control | [7] 107 % of control | [8] 105 % of control

CNC1C(=O)C2CCC(C2)C1c1ccccc1 (stereo not drawn)
inactive: [6] 108 % of control | [7] 100 % of control | [8] 96 % of control

CC(C)CC(NC(=O)C(F)(F)F)C(=O)O (stereo not drawn)
inactive: [4] 97 % of control | [5] 90 % of control

CN(C(=O)C(=O)N(C)S(=O)(=O)c1ccccc1)S(=O)(=O)c1ccccc1
inactive: dose: 100.0 mg/kg/injection, schedule: Q01DX001 (ip), vehicle: Klucel (hydroxypropylcellulose) (HPC) 101 % of control | dose: 200.0 mg/kg/injection, schedule: Q01DX001 (ip), vehicle: Klucel (hydroxypropylcellulose) (HPC) 97 % of control | dose: 400.0 mg/kg/injection, schedule: Q01DX001 (ip), vehicle: Klucel (hydroxypropylcellulose) (HPC) 90 % of control

CC12CCC(O)CC1=CCC1C2CCC2(C)C1CC1=CC(C#N)C(=O)NC12O (stereo not drawn)
inactive: dose: 100.0 mg/kg/injection, schedule: Q04DX003 (sc), vehicle: Klucel (hydroxypropylcellulose) (HPC) 100 % of control | dose: 200.0 mg/kg/injection, schedule: Q04DX003 (sc), vehicle: Klucel (hydroxypropylcellulose) (HPC) 103 % of control | dose: 400.0 mg/kg/injection, schedule: Q04DX003 (sc), vehicle: Klucel (hydroxypropylcellulose) (HPC) 99 % of control

CCCCCCCCCCCCCCCCCCNC(=O)Nc1cccc(OC)c1
inactive: dose: 25.0 mg/kg/injection, schedule: Q04DX002 (ip), vehicle: saline with Tween-80 102 % of control | dose: 50.0 mg/kg/injection, schedule: Q04DX002 (ip), vehicle: saline with Tween-80 89 % of control

CCCCCCCCCCCCCCCCCC1=NC(C)CC(C)(C)O1 (stereo not drawn)
inactive: dose: 50.0 mg/kg/injection, schedule: Q01DX009 (ip), vehicle: saline 93 % of control | [6] 89 % of control | dose: 100.0 mg/kg/injection, schedule: Q01DX009 (ip), vehicle: saline 94 % of control | dose: 100.0 mg/kg/injection, schedule: Q04DX003 (ip), vehicle: saline 86 % of control | [7] 95 % of control | dose: 200.0 mg/kg/injection, schedule: Q01DX009 (ip), vehicle: saline 96 % of control | dose: 200.0 mg/kg/injection, schedule: Q04DX003 (ip), vehicle: saline 94 % of control | [8] 91 % of control

O=C1/C(=C/c2c(Cl)cccc2Cl)CCC/C1=C\c1c(Cl)cccc1Cl
inactive: [1] 104 % of control | dose: 100.0 mg/kg/injection, schedule: Q04DX003 (ip), vehicle: Klucel (hydroxypropylcellulose) (HPC) 111 % of control | [2] 108 % of control | dose: 200.0 mg/kg/injection, schedule: Q04DX003 (ip), vehicle: Klucel (hydroxypropylcellulose) (HPC) 101 % of control | [3] 90 % of control | dose: 400.0 mg/kg/injection, schedule: Q04DX003 (ip), vehicle: Klucel (hydroxypropylcellulose) (HPC) 101 % of control

CSc1ncnc2c1ncn2/N=C/c1ccccc1
inactive: dose: 100.0 mg/kg/injection, schedule: Q01DX001 (ip), vehicle: carboxymethylcellulose (CMC) 96 % of control | dose: 200.0 mg/kg/injection, schedule: Q01DX001 (ip), vehicle: carboxymethylcellulose (CMC) 95 % of control | dose: 400.0 mg/kg/injection, schedule: Q01DX001 (ip), vehicle: carboxymethylcellulose (CMC) 96 % of control

S=C(NCc1cccc(Cl)c1)Nc1ccccc1
inactive: dose: 25.0 mg/kg/injection, schedule: Q01DX009 (ip), vehicle: Klucel (hydroxypropylcellulose) (HPC) 98 % of control | dose: 50.0 mg/kg/injection, schedule: Q01DX009 (ip), vehicle: Klucel (hydroxypropylcellulose) (HPC) 106 % of control | [1] 93 % of control

CN(C)c1ccc(/C=C\c2cc(/C=C/c3ccc(N(C)C)cc3)c([N+](=O)[O-])cc2[N+](=O)[O-])cc1
inactive: dose: 75.0 mg/kg/injection, schedule: Q01DX001 (ip), vehicle: saline 98 % of control and 89 % of control | dose: 150.0 mg/kg/injection, schedule: Q01DX001 (ip), vehicle: saline 86 % of control | dose: 300.0 mg/kg/injection, schedule: Q01DX001 (ip), vehicle: saline 95 % of control and 101 % of control

Reference: PubChem BioAssay AID248 (DTP/NCI, 2004)
